# In patent US6638974B1, “Ascorbyl esters for the treatment of cancer” (University of South Florida, priority 1999, dated 2003):
# Key:
# T98G cells [1] = experiment: Cell multiplication cycle, T98G; assay type: cell-based, human; conditions: 50-175 μM Asc-S
# Description: Human glioma cell proliferation and tumorigrenicity are under autocrine control of the insulin like growth factor 1 (IGF-1) and its receptor (IGF-1R). Although it has been known for quite some time that ascorbic acid and its derivatives have anti-proliferative effects on various tumor cells, the precise mechanism of action is unknown. This study presents data on Ascorbyl Stearate (Asc-S) […] glioma (T98G) cell proliferation and transformation. Asc-S inhibited 10% fetal bovine serum (FBS) and human recombinant IGR-1 ([…]) dependent T98G cell proliferation in a dose dependent manner. […] The inhibition of IGF-1 Rs was also time and dose dependent.
# T98G cells [2] = experiment: Apoptosis by in situ TUNEL assay, T98G; assay type: cell-based, human; conditions: 100 μM, 24 hours
# Method: (§1) Apoptosis by in situ TUNNEL assay: This experiment was designed to test the hypothesis that down regulation of IGF1-R facilitates apoptosis in T98G cells. […] In addition, to test whether Asc-S treatment induces apoptosis in normal cells, rat astrocyte cells in primary culture were treated with 100 μM Asc-S for 24 hours. […] The increased apoptosis in the Asc-S treated T98G cells is due to down regulation of IGF1-R.
# (§2) In FIG. 10, apoptosis was evaluated by in situ immunohistochemical detection and quantification at a single cell level.
# PC-1 cells = experiment: MTT cell growth and viability assay, PC-1; assay type: cell-based, hamster; conditions: different concentrations of Asc-S, 24 hours
# Method: Cell Growth and Vitality: The effect of Asc-S on PANC-1 and PC-1 cell growth and viability was evaluated by 3-(4,5-dimethylthiazol-2yl)-2,5-diphenyl-tetrazoliumbromide (MTT) (Sigma Chemical Co., St. Louis, Md.) assay and the details of the procedure are as described earlier (Naidu et al., 1993a) PANC-1 cells were seeded at 2.5×10^4 viable cells well in 0.1 ml MEM supplemented with 10% FBS or serum free MEM with 15 nM human recombinant IGF-1 in 96 multiwell tissue culture plates. The following day when the cells were nearly confluent, the medium was replaced with fresh medium and 50, 75, 100, 125, 150, 175 and 200 μM Asc-S were added and incubated in a CO2 incubator at 37° C. for 24 hours with respective untreated controls.
# (§3) The effect of Asc-S on the proliferation of PC-1 and PANC-1 pancreatic tumor cells was studied using MTT assay. The expression of IGF1-R was analyzed by Western blot analysis, using polyclonal IGF1-R antibody (Upstate Biotech). Apoptosis was assessed by in situ hybridization using TUNEL reaction. […] This was associated with significant decrease in IGF1-R expression and increased apoptotic rate as compared to the control. Statistical analysis on the MTT assay was done using Student's T-test.
# PANC-1 cells [3] = experiment: Apoptosis by in situ TUNEL assay, PANC-1; assay type: cell-based, human; conditions: 150 μM, 24 hours
# Method: Detection of Apoptosis By In Situ Hybridization Using TUNEL Reaction: Apoptosis was determined by TdT-mediated dUTP nick end labeling (TUNEL) using an in situ cell death detection kit (Boehringer Mannheim, Indianapolis, Ind.). Asc-S treated and untreated PANC-1 cells were trypsinized and cytospin preparations were obtained. Cells were fixed with paraformaldehyde (4% in PBS, pH 7.4). After a rinse in PBS, the slides were incubated in permeabilization solution. Slides were cross-reacted with TUNEL reaction mixture for 60 minutes at 37° C. in a humidified chamber. Slides were thoroughly rinsed and reacted with alkaline phosphatase substrate solution for five to ten minutes (Vector Laboratories, Burlington, Mass.). The slides were analyzed under light microscope. These experiments were performed in duplicate.
# PANC-1 cells [4] = experiment: Soft agar colony growth, PANC-1; assay type: cell-based, human; conditions: PANC-1, 150 μM Asc-S
# Method: Soft agar experiments: To test the hypothesis that treatment of PANC-1 cells in culture with Asc-S reverses their transformed phenotype, the growth of PANC-1 was assessed in soft agar. PANC-1 cells were seeded at a density of 3×10^3/35 mm plate in 10% serum on a top layer of 0.3% agar and a bottom layer of 1% agar with and without the addition of 150 μM of Asc-S for 24 hours. The Asc-S was added to the top layer every day. Colonies greater than 125 microns in diameter (or ten cells) were counted at weekly intervals for 14-21 days. The clonogenicity was determined in three independent experiments comprising six replicates.
# rat astrocyte cells = experiment: Apoptosis by in situ TUNEL assay, rat astrocytes in primary culture; assay type: cell-based; conditions: 100 μM, 24 hours, vs untreated astrocytes
# Method: as §1, §2
# IGF1-R [5] = experiment: IGF1-R expression by Western blotting, PC-1; assay type: cell-based, hamster; conditions: 150 μM, 24 hours, vs untreated control
# Method: This inhibition was dose and time dependent. In fact the exposure of PANC-1 cells to different concentrations of Asc-S (e.g. 50, 75, 100, 125, 150, and 200 μM) for 24 hours in the same conditions, inhibited IGF1-R expression in a dose dependent fashion (FIG. 2A).
# as §3
# IGF1-R [6] = experiment: IGF1-R expression by Western immunoblotting, T98G; assay type: cell-based, human; conditions: 100 μM, 24 hours, MEM+10% FBS
# Method: The T98G and U-373 cells were cultured for 24 hours in MEM+10% FBS and when confluent were treated with 100 μM and 75 μM, Asc-S for 24 hours, respectively. […] In addition, it was also observed that the inhibition of IGF1-R expression was dose and time dependent. The T98G cells culture in MEM+10% FBS and treated with different concentrations of Asc-S, e.g. 50, 75, 100, 125, 150 and 175 μM for 24 hours, inhibited IGF1-R in a dose dependent fashion (FIG. 8C). The T98G cells treated with 100 μM Asc-S for different time points, e.g. 1, 3, 6, 12 and 24 hours inhibited IGF1-R in a time dependent manner (FIG. 8D). IGF1-R expression was evaluated by Western immunoblotting technique with rabbit-antihuman IGF1-R antibodies (Upstate Biotechnology, Lake Placid, N.Y.) with HRP conjugated anti-rabbit secondary antibody.
# The inhibition of IGF1-R expression was also dose and time dependent. […] The following are depicted in FIG. 8B: Lane 1: P6 positive control for IGF1-R […]; Lane 2: untreated T98G cells; Lane 3: Asc-S (125 μM) treated T98G cells. […]
smiles,measurement,setting,value
"CCCCCCCCCCCCCCCCCC(=O)OC[C@H](O)[C@H]1OC(=O)C(O)=C1O [Asc-S, Ascorbyl stearate]","cell multiplication cycle, T98G",T98G cells [1],arrest of cell multiplication cycle in G1/Go phase
same,"apoptosis (in situ TUNEL), T98G cells",T98G cells [2],significant increase in apoptosis
same,PC-1 cell proliferation (MTT assay),PC-1 cells,dose dependent inhibition of PC-1 cell proliferation
same,"apoptosis (in situ TUNEL), PANC-1",PANC-1 cells [3],significant increase in apoptosis
same,"soft agar colonies, 1st week",PANC-1 cells [4]; 1st week,0 colonies
same,"soft agar colonies, 2nd week",PANC-1 cells [4]; 2nd week,15 colonies
same,"soft agar colonies, 3rd week",PANC-1 cells [4]; third week,50 colonies
same,"apoptotic rate (in situ TUNEL), rat astrocytes",rat astrocyte cells,did not increase the apoptotic rate
same,"IGF1-R expression, PC-1 cells (Western blotting)",IGF1-R [5],significantly lower number of receptors
same,"IGF1-R expression, T98G cells",IGF1-R [6],significantly down regulated
